# Data taken from US5061690A, “Method for increasing milk production in mammals and/or increasing the birth weight of their newborn and improving postnatal growth” (Institut National de la Recherche Agronomique, priority 1987, dated 1991).
# “Also recorded” adds a separate entry of the source. Where two headings read alike, the source gives them in different places.
# Tests used:
# gravid ewes [1] = assay type: in vivo
# Description: (§1) 30 gravid ewes which were at the 135th day of gestation were distributed in two batches of 15 ewes each, account being taken of the number of fetuses assumed to be present in the uteri and of the earlier milk outputs, all the ewes being multiparous. Batch A, which receives no treatment, serves as control batch. Batch B receives 1.5 mg of hGRF (1-29) (equivalent to approximately 20 μg per kg of body weight) subcutaneously twice daily, at 8.00 hours and 14.00 hours, from day 137 of gestation up to the day of littering (which varied between day 145 and day 147, depending on the ewe). The administration of hGRF (1-29) is stopped as soon as parturition takes place. In all the animals, lambing is induced by the administration of 9 α-fluoro-11β,17α,21-trihydroxy-16α-methyl-1,4-pregnadiene-3,20-dione (proposed under the INN of dexamethasone) on the basis of 16 mg intramuscularly at 20.00 hours on day 144 of gestation. The birth weights of the lambs born of mothers of the two batches A and B were compared.
# multiparous gravid ewes [2] = experiment: hGRF (1-29) on completion of two-thirds and/or at end of gestation in ewes: birth weight and growth of lambs; assay type: in vivo; conditions: for Weight of the Lambs at 30 days: control 12.12 ± 0.7 kg
# Description: 48 multiparous gravid ewes were distributed in four batches of 12 ewes each, account being taken of the earlier milk productions and of the anticipated parity (OCS--Ovine Chorionic Somatotropin--assay). The first batch forms the control batch, the ewes receiving no treatment. The other three batches receive 1.5 mg of hGRF (1-29) subcutaneously twice daily; from day 105 to day 115 of gestation for the second batch, which will be designated hereinafter as batch "GRF1"; from day 137 of gestation to littering for the third batch, which will be designated hereinafter as batch "GRF2"; and from day 105 to day 115 of gestation and from day 137 of gestation to littering for the fourth batch, which will be designated hereinafter as batch "GRF1+2". As in the above study, the administration of hGRF (1-29) is stopped as soon as parturition takes place, and lambing is induced by the administration of dexamethasone on day 145 of gestation, under the conditions described above. After parturition, the milk production of the ewes was measured twice daily, and the growth of the lambs, which received an artificial milk-feed supplied "ad libitum", was followed, the lambs receiving no growth adjuvant treatment. The analysis concerned only twin lambs, distributed as follows: At the age of 30 days, after variance analysis taking birth weight as covariable, a larger growth of all the lambs born of the mothers of batch GRF2 was observed. This is shown in FIG. 3, which is an illustration similar to that of FIG. 4, enabling the weights of the lambs born of the mothers of the four batches to be compared at the age of 30 days. Table 1 below complements this FIG. 3.
# multiparous gravid ewes [3] = experiment: hGRF (1-29) on completion of two-thirds and/or at end of gestation in ewes: milk production; assay type: in vivo
# Description: 48 multiparous gravid ewes were distributed in four batches of 12 ewes each, account being taken of the earlier milk productions and of the anticipated parity (OCS--Ovine Chorionic Somatotropin--assay). The first batch forms the control batch, the ewes receiving no treatment. The other three batches receive 1.5 mg of hGRF (1-29) subcutaneously twice daily; from day 105 to day 115 of gestation for the second batch, which will be designated hereinafter as batch "GRF1"; from day 137 of gestation to littering for the third batch, which will be designated hereinafter as batch "GRF2"; and from day 105 to day 115 of gestation and from day 137 of gestation to littering for the fourth batch, which will be designated hereinafter as batch "GRF1+2". As in the above study, the administration of hGRF (1-29) is stopped as soon as parturition takes place, and lambing is induced by the administration of dexamethasone on day 145 of gestation, under the conditions described above. After parturition, the milk production of the ewes was measured twice daily, and the growth of the lambs, which received an artificial milk-feed supplied "ad libitum", was followed, the lambs receiving no growth adjuvant treatment. After a variance analysis, taking the earlier production as covariable, and after correction taking into account the parity (number of lambs per pregnancy) during the lactation in progress and during the reference lactation, the results for the milk production were compared between the control batches and batches "GRF1" and "GRF2". From the results obtained over five weeks of lactation, the curves of FIGS. 4 and 5 were plotted, the source data being reported in Table 2 below.
# gravid ewes [4] = experiment: OGH (growth hormone) assay in gravid ewes given hGRF (1-29) at the end of gestation; assay type: in vivo; conditions: batch B
# Description: as §1, with “[…] This discharge is the same in nature after the morning injection and after that” for “The birth weights”, “afternoon. […] This is shown in FIG. 1” for “lambs born of mothers”, “attached drawings, which represents the OGH hormone assay in terms of the time of day (mean over 15 ewes) on day 138” for “two batches A”, “on day 146 of gestation.” for “B were compared.”
# dairy cows = conditions: cited from earlier work; for milk production increased: milk adjusted to fat content 3.5%
# [5] = 1.5 mg s.c. twice daily from day 137 of gestation to littering
molecule,measurement,setting,value
"hGRF (1-29): form of human growth hormone releasing factor containing 29 amino acids, obtained after deletion of the C-terminal portion",birth weight of the lambs born of treated mothers,"gravid ewes [1]; batch B, n=20, 1.5 mg s.c. twice daily day 137 to littering, control batch A 3.61±0.14 kg",4.17 ± 0.13 kg
same,effect on dates of the lambing (parturition),gravid ewes [1]; in vivo,not modifying the dates of the lambing
same,Weight of the Lambs at 30 days,"multiparous gravid ewes [2]; batch GRF1+2: day 105 to 115 and day 137 to littering, 10 lambs",13 ± 0.66 kg
same,birth weight of the lambs versus control,"multiparous gravid ewes [2]; batch GRF1+2: day 105 to 115 and day 137 to littering, twin lambs n=12",substantially similar
same,Weight of the Lambs at 30 days,"multiparous gravid ewes [2]; batch GRF1: day 105 to 115 of gestation, 14 lambs",13.6 ± 0.5 kg
same,birth weight of the lambs versus control,"multiparous gravid ewes [2]; batch GRF1: day 105 to day 115 of gestation, twin lambs n=16",substantially similar; also recorded: of the same order
same,mean birth weight of the lambs,"multiparous gravid ewes [2]; batch GRF2: day 137 of gestation to littering, twin lambs n=12, control 2.91 kg",3.54 kg
same,Weight of the Lambs at 30 days,"multiparous gravid ewes [2]; batch GRF2: day 137 to littering, 12 lambs",14.73 ± 0.53 kg
same,excess of lamb growth at 30 days over lambs of control mothers,multiparous gravid ewes [2]; ewes treated between days 105 and 115 of gestation (GRF1),~11%
same,excess of lamb weight at 30 days over the controls,"multiparous gravid ewes [2]; mothers treated between days 137 and 147 of gestation (GRF2), corrected for birth weight",21%
same,milk production greater than that of the control ewes,"multiparous gravid ewes [3]; batch GRF1 (days 105 to 115 of gestation), fifth week of lactation",more than 23%
same,Milk production,"multiparous gravid ewes [3]; batch GRF1, week of lactation 1, FIG. 4, control 980 ± 70",1075 ± 50
same,Milk production,"multiparous gravid ewes [3]; batch GRF1, week of lactation 2, FIG. 4, control 950 ± 60",1090 ± 70
same,Milk production,"multiparous gravid ewes [3]; batch GRF1, week of lactation 3, FIG. 4, control 845 ± 50",1025 ± 60
same,Milk production,"multiparous gravid ewes [3]; batch GRF1, week of lactation 4, FIG. 4, control 760 ± 45",920 ± 60
same,Milk production,"multiparous gravid ewes [3]; batch GRF1, week of lactation 5, FIG. 4, control 720 ± 50",880 ± 50
same,Milk production,"multiparous gravid ewes [3]; batch GRF2, week of lactation 1, FIG. 5, control 1020 ± 50",1050 ± 60
same,Milk production,"multiparous gravid ewes [3]; batch GRF2, week of lactation 2, FIG. 5, control 1025 ± 60",1010 ± 50
same,Milk production,"multiparous gravid ewes [3]; batch GRF2, week of lactation 3, FIG. 5, control 975 ± 50",855 ± 50
same,Milk production,"multiparous gravid ewes [3]; batch GRF2, week of lactation 4, FIG. 5, control 925 ± 50",840 ± 40
same,Milk production,"multiparous gravid ewes [3]; batch GRF2, week of lactation 5, FIG. 5, control 860 ± 50",745 ± 60
same,discharge of growth hormone (GH),gravid ewes [4]; [5],of large magnitude
same,duration of the discharge of growth hormone after the subcutaneous injection,gravid ewes [4]; [5],approximately 5 hours
same,"GH response, day 146 versus day 138 of gestation","gravid ewes [4]; mean over 15 ewes, FIG. 1",magnified as the term of the pregnancy is approached
"bGH: bovine growth hormone obtained by genetic recombination (protein, UniProt P01246 27-217, looked up) Somatotropin: AFPAMSLSGLFANAVLRAQHLHQLAADTFKEFERTYIPEGQRYSIQNTQVAFCFSETIPAPTGKNEAQQKSDLELLRISLLLIQSWLGPLQFLSRVFTNSLVFGTSDRVYEKLKDLEEGILALMRELEDGTPRAGQILKQTYDKFDTNMRSDDALLKNYGLLSCFRKDLHKTETYLRVMKCRRFGEASCAF",milk production increased,dairy cows; 12.5 mg bGH per day,16%
same,nutritional efficiency (kg milk with 3.5% fat per kg dry matter ingested) increased,dairy cows; 12.5 mg bGH/day for a long period,13.8%
same,milk production increased,dairy cows; 25 mg bGH per day,19%
same,nutritional efficiency (kg milk with 3.5% fat per kg dry matter ingested) increased,dairy cows; 25 mg bGH/day for a long period,16.8%
same,milk production increased,dairy cows; 50 mg bGH per day,22%
same,nutritional efficiency (kg milk with 3.5% fat per kg dry matter ingested) increased,dairy cows; 50 mg bGH/day for a long period,15.3%
